Measurements reported in patent US4585755A, “Cyclic and bridged cyclic somatostatin analogs useful as local anti-inflammatory agents” (Merck & Co., Inc., priority 1985, dated 1986).
Residues, ends and D or L forms follow the SMILES beside them.

Assays:
[1] = system: growth hormone, insulin and glucogen secretion; assay: Potency relative to somatostatin (SRIF), based on inhibition of hormone secretion; details: somatostatin (SRIF) potency assigned a value of 1, based upon inhibition of growth hormone
Description: Following the same procedure as described above for Assay 1, additional compounds were tested for local; i.e., topical, anti-inflammatory activity. […] In Table III, the potency of each compound tested relative to that of somatostatin is also shown, the somatostatin (SRIF) potency being assigned a value of 1 and based upon its inhibition of growth hormone, insulin and glucogen secretion.

[2] = system: cellular proliferation (granuloma); assay: Assay 2: pellet granuloma assay, compounds administered subcutaneously as saline injections; type: in vivo, rats (Charles River-CD); details: for Avg. Granuloma wt. / Avg. Adrenal wt. / Avg. Thymus wt. / Avg. body wt change: rats, 7 days, ± S.E. of mean; for Avg. Granuloma wt.: control 28 ± 3; for Avg. Adrenal wt.: control 44 ± 1; for Avg. Thymus wt.: control 552 ± 45; for Avg. body wt change: control +35 ± 2
Description: (§1) Male rats (Charles River-CD) of about 150-160 grams in weight were subcutaneously implanted in the abdominal area with two pellets each. Five animals were used per group. The pellets used were preweighed and all used in a given assay were ±1 mg from one another. The compounds were dissolved in absolute ethanol and the indicated dose applied to each pellet in 0.2 ml. The alcohol was removed in vacuo overnight. Just prior to implantation, each pellet was moistened with 0.2 ml of 0.9% saline containing 1 mg each of penicillin and streptomycin. After seven days, the pellets were dissected out together with adhering granulomatous tissue. After drying in a vacuum oven overnight at 60°-65° C., the pellets were weighed. The difference in weight between the original pellet weight and the implanted pellet weight was used as a measure of cellular proliferation (granuloma). The lower the net weight, the more anti-inflammatory activity.
Following the procedure described above for Assay 1, additional tests were conducted except that the compounds were administered subcutaneously as saline injections. The tests were carried out on six animals per group and the results obtained are shown below in Table II.

[3] = system: cellular proliferation (granuloma); assay: Assay 1: pellet granuloma assay, compound applied locally to implanted pellets; type: in vivo, rats (Charles River-CD); details: for Body Wt. Change / Net weight of Pellets: local on pellet, male rats, 7 days; for Net weight of Pellets: ± S.E. of mean, control 39 ± 2.7
Description: The assay method employed to test the Formula I, II and III compounds as local anti-inflammatory agents is a modification of the method described by S. L. Steelman, et al. [Steroids, 1, 163 (1963)] as follows:
as §1
The results obtained following the Assay Method described above are shown below in Table I wherein hydrocortisone was used as a positive control.

[4] = daily dose 200 mcg subcutaneous

CC(C)[C@@H]1NC(=O)[C@H](CCCCN)NC(=O)[C@@H](Cc2c[nH]c3ccccc23)NC(=O)[C@H](Cc2ccc(O)cc2)NC(=O)[C@H](C)N(C)C(=O)[C@H](Cc2c[nH]c3ccccc23)NC1=O [9/I, Cyclo-(N-Me-Ala-Tyr-D-Trp-Lys-Val-Trp)] (HELM PEPTIDE1{K.V.W.[meA].Y.[dW]}$PEPTIDE1,PEPTIDE1,1:R1-6:R2$$$V2.0)
Potency Relative to Samatostatin (SRIF) [1]: 20-35

CC(C)[C@@H]1NC(=O)[C@H](CCCCN)NC(=O)[C@H](Cc2c[nH]c3ccccc23)NC(=O)[C@H](Cc2ccc(O)cc2)NC(=O)[C@H](C)N(C)C(=O)[C@H](Cc2ccccc2)NC1=O [10/I, Cyclo-(N-Me-Ala-Tyr-L-Trp-Lys-Val-Phe)]
Potency Relative to Samatostatin (SRIF) [1]: 50

C[C@@H]1NC(=O)[C@H](CO)NC(=O)[C@H](CCCCN)NC(=O)[C@@H](Cc2c[nH]c3ccccc23)NC(=O)[C@H](Cc2c[nH]cn2)NC(=O)[C@H](Cc2ccccc2)N(C)C1=O [11/I, Cyclo-(Ser-Ala-N-Me-Phe-His-D-Trp-Lys)] (HELM PEPTIDE1{A.[meF].H.[dW].K.S}$PEPTIDE1,PEPTIDE1,1:R1-6:R2$$$V2.0)
Potency Relative to Samatostatin (SRIF) [1]: 200

C[C@@H](O)[C@@H]1NC(=O)[C@H](CCCCN)NC(=O)[C@@H](Cc2c[nH]c3ccccc23)NC(=O)[C@H](Cc2ccccc2)NC(=O)[C@@H]2CCCN2C(=O)[C@H](Cc2ccccc2)NC1=O [13/II, Cyclo-(Pro-Phe-D-Trp-Lys-Thr-Phe)] (HELM PEPTIDE1{P.F.[dW].K.T.F}$PEPTIDE1,PEPTIDE1,1:R1-6:R2$$$V2.0)
Potency Relative to Samatostatin (SRIF) [1]: 6

CC(C)[C@@H]1NC(=O)[C@H](CCCCN)NC(=O)[C@@H](Cc2c[nH]c3ccccc23)NC(=O)[C@H](Cc2ccc(O)cc2)NC(=O)[C@H](C)N(C)C(=O)[C@H](Cc2ccccc2)NC1=O [Compound 8 of Formula I, Cyclo-(N-Me-Ala-Tyr-D-Trp-Lys-Val-Phe)]
effect on adrenal weight (in words) ([2]; administered subcutaneously): slight decrease in the adrenal weight | anti-inflammatory activity (in words) ([2]; administered subcutaneously at a total dose of 1.4 mg (0.2 mg×7)): no anti-inflammatory activity | anti-inflammatory activity (in words) ([2]; administered systematically, i.e., subcutaneously): no anti-inflammatory activity | Avg. Granuloma wt. ([2]; daily dose 50 mcg subcutaneous): 27 ± 3 mg | Avg. Adrenal wt. ([2]; daily dose 50 mcg subcutaneous): 43 ± 2 mg | Avg. Thymus wt. ([2]; daily dose 50 mcg subcutaneous): 576 ± 14 mg | Avg. body wt change ([2]; daily dose 50 mcg subcutaneous): +38 ± 3 gm | Avg. Granuloma wt. [2, 4]: 29 ± 2 mg | Avg. Adrenal wt. [2, 4]: 36 ± 2 mg | Avg. Thymus wt. [2, 4]: 571 ± 26 mg | Avg. body wt change [2, 4]: +35 ± 2 gm | Potency Relative to Samatostatin (SRIF) [1]: 50-100 | Body Wt. Change ([3]; 10 mcg./pellet): +43 gm | Net weight of Pellets ([3]; 10 mcg./pellet): 39 ± 2.9 mg | Body Wt. Change ([3]; 100 mcg./pellet): +40 gm | Net weight of Pellets ([3]; 100 mcg./pellet): 30 ± 2.4 mg | anti-inflammatory activity (in words) ([3]; administered locally, i.e., topically): clearly exhibits anti-inflammatory activity | local anti-inflammatory activity (in words) ([3]; doses of 100-200 micrograms per pellet): significant activity

C[C@]12CCC(=O)C=C1CC[C@@H]1[C@@H]2[C@@H](O)C[C@@]2(C)[C@H]1CC[C@]2(O)C(=O)CO [Hydrocortisone, reference compound]
activity of positive control (in words) ([2]; administered subcutaneously): typical activity | Avg. Granuloma wt. ([2]; daily dose 1.0 mg subcutaneous): 22 ± 1 mg | Avg. Adrenal wt. ([2]; daily dose 1.0 mg subcutaneous): 36 ± 3 mg | Avg. Thymus wt. ([2]; daily dose 1.0 mg subcutaneous): 201 ± 20 mg | Avg. body wt change ([2]; daily dose 1.0 mg subcutaneous): +22 ± 3 gm | Avg. Granuloma wt. ([2]; daily dose 4.0 mg subcutaneous): 19 ± 1 mg | Avg. Adrenal wt. ([2]; daily dose 4.0 mg subcutaneous): 23 ± 1 mg | Avg. Thymus wt. ([2]; daily dose 4.0 mg subcutaneous): 41 ± 3 mg | Avg. body wt change ([2]; daily dose 4.0 mg subcutaneous): -17 ± 2 gm | Body Wt. Change ([3]; 200 mcg./pellet): +44 gm | Net weight of Pellets ([3]; 200 mcg./pellet): 34 ± 2.5 mg | Body Wt. Change ([3]; 1000 mcg./pellet): +41 gm | Net weight of Pellets ([3]; 1000 mcg./pellet): 29 ± 2.1 mg
